From patent publication US11253500B2, “Sanfetrinem or a salt or ester thereof for use in treating mycobacterial infection” (priority 2017, dated 2022)
≈ marks a conversion by molar mass, not a printed value. Where “and” joins values, the source holds several entries; their conditions need not be identical. Identical values can stand only once. Counter-ions that a name gives are not always drawn. Like-named read-outs stand apart in the source and are kept apart here.

How the values were obtained:
M. tuberculosis H37Rv [1] = assay: MIC determination (extracellular, resazurin); type: cell-based, Mycobacterium tuberculosis
[2] = tested on: Mycobacterium tuberculosis growing inside human THP-1 monocytes; assay: Intracellular viability assay (luciferase Mtb in THP-1 monocytes); type: cell-based
M. tuberculosis H37Rv [3] = assay: In vivo anti-tubercular activity in DHP-1 KO mice; design: species or system Mycobacterium tuberculosis; conditions: 129sv DHP-1 KO mice; for Lung CFU: intratracheal infection, twice a day from day 9 to day 14, lungs day 15, mean, untreated 7.4 (Day 9), 9.0 (Day 15); for Effect on bacterial growth in lung: treated day 9 to day 14
Mtb H37Rv strain = assay: Checkerboard assay with rifampicin, ethambutol, delamanid and amoxicillin (384-well, MTT or ATP); type: cell-based, Mycobacterium tuberculosis; conditions: for FIC_B / MICsyn_B: Comp B in the presence of SFT; for Fold_B: MIC/MICsyn of Comp B with SFT; for MIC: Mycobacterium tuberculosis, H37RV, Comp B alone (IC90)
M. tuberculosis H37Rv [4] = assay: Checkerboard combination with amoxicillin and/or clavulanate (resazurin); type: cell-based, Mycobacterium tuberculosis
[5] = tested on: panel of twenty-three M. tuberculosis strains; assay: microbe, parasite or virus in culture; type: cell-based, Mycobacterium tuberculosis; conditions: for MIC: Mycobacterium tuberculosis
[6] = Mycobacterium tuberculosis, H37RV, extracellular, with 4 μg/ml potassium clavulanate, average, read-out: MIC μM (average with clav)
[7] = Mycobacterium tuberculosis, H37RV, extracellular, without clavulanate, average, read-out: MIC μM (average w/o clav)
[8] = Mycobacterium tuberculosis, w/o clav, average, read-out: MIC50 μM (average w/o clav)
[9] = Mycobacterium tuberculosis, w/o clav, average, read-out: MIC90 μM (average w/o clav)
[10] = Mycobacterium tuberculosis, with clav, average, read-out: MIC50 μM (average with clav)
[11] = Mycobacterium tuberculosis, with clav, average, read-out: MIC90 μM (average with clav)
[12] = Mycobacterium tuberculosis, with clav, separate readings, read-out: MIC90 μM (with clav)
[13] = with clav, separate readings, read-out: MIC90 μM (with clav)
[14] = Mycobacterium tuberculosis, H37RV, extracellular, with 4 μg/ml potassium clavulanate, separate readings, read-out: MIC μM (with clav)
[15] = Mycobacterium tuberculosis, H37RV, extracellular, without clavulanate, separate readings, read-out: MIC μM (w/o clav)
[16] = Mycobacterium tuberculosis, w/o clav, separate readings, read-out: MIC50 μM (w/o clav)
[17] = Mycobacterium tuberculosis, w/o clav, separate readings, read-out: MIC90 μM (w/o clav)
[18] = Mycobacterium tuberculosis, with clav, separate readings, read-out: MIC50 μM (with clav)
[19] = w/o clav, separate readings, read-out: MIC50 μM (w/o clav)
[20] = w/o clav, separate readings, read-out: MIC90 μM (w/o clav)
[21] = with clav, separate readings, read-out: MIC50 μM (with clav)
[22] = Mycobacterium tuberculosis, H37RV

## CO[C@H]1CCC[C@H]2C1=C(C(=O)OC(C)OC(=O)OC1CCCCC1)N1C(=O)[C@H]([C@@H](C)O)[C@@H]21 (mixture of isomers) [Sanfetrinem cilexetil, (1S,5S,8aS,8bR)-1-(((cyclohexyloxy)carbonyl)oxy)ethyl 1-((R)-1-hydroxyethyl)-5-methoxy-2-oxo-1,2,5,6,7,8,8a,8b-octahydroazeto[2,1-a]isoindole-4-carboxylate]
M. tuberculosis H37Rv [1]; [6]
  MIC: 8.6 µM
M. tuberculosis H37Rv [1]; [7]
  MIC: 10.6 µM
[2]; [8]
  MIC50: 0.85 µM (≈ 0.384 µg/mL)
[2]; [9]
  MIC90: 5.2 µM (≈ 2.35 µg/mL)
[2]; [10]
  MIC50: 0.6 µM (≈ 0.271 µg/mL)
[2]; [11]
  MIC90: 5 µM (≈ 2.26 µg/mL)
[2]; [12]
  MIC90: 4.6 µM (≈ 2.08 µg/mL)
[2]; [13]
  MIC90: 5.3 µM (≈ 2.39 µg/mL)
M. tuberculosis H37Rv [3]
  Lung CFU: 7.6 log CFU
  Effect on bacterial growth in lung: preventing bacterial growth

## C[C@]1(COc2ccc(N3CCC(Oc4ccc(OC(F)(F)F)cc4)CC3)cc2)Cn2cc([N+](=O)[O-])nc2O1 [DLD, Delamanid]
Mtb H37Rv strain
  FIC_B: 0.25
  MICsyn_B: 0.0025 µM
  Fold_B: 4
  MIC: 0.01 µM

## CC[C@@H](CO)NCCN[C@@H](CC)CO [EMB, Ethambutol]
Mtb H37Rv strain
  FIC_B: 0.25
  MICsyn_B: 2 µM
  Fold_B: 4
  MIC: 8 µM

## C[C@@H](O)[C@H]1C(=O)N2C(C(=O)O)=C(S[C@@H]3CN[C@H](C(=O)Nc4cccc(C(=O)O)c4)C3)[C@H](C)[C@H]12 [Ertapenem]
M. tuberculosis H37Rv [1]; [6]
  MIC: 16.7 µM
M. tuberculosis H37Rv [1]; [14]
  MIC: 10 µM
M. tuberculosis H37Rv [1]; [7]
  MIC: > 80 µM
M. tuberculosis H37Rv [1]; [15]
  MIC: 80 µM
M. tuberculosis H37Rv [1]; extracellular, with 4 μg/ml potassium clavulanate, separate readings, read-out: MIC μM (with clav)
  MIC: 20 µM
[2]; [8]
  MIC50: 29.6 µM (≈ 14.1 µg/mL)
[2]; [9]
  MIC90: > 50 µM
[2]; [10]
  MIC50: 3.84 µM (≈ 1.83 µg/mL)
[2]; [11]
  MIC90: 21 µM (≈ 10 µg/mL)

## C[C@@H](O)[C@H]1C(=O)N2C(C(=O)O)=C([C@H]3CCCO3)S[C@H]12 [Faropenem]
M. tuberculosis H37Rv [1]; [6]
  MIC: 8.9 µM
M. tuberculosis H37Rv [1]; [7]
  MIC: 15.7 µM
[2]; [8]
  MIC50: 1.85 µM (≈ 0.528 µg/mL)
[2]; [9]
  MIC90: 12.3 µM (≈ 3.52 µg/mL)
[2]; [16]
  MIC50: 2.2 µM (≈ 0.628 µg/mL)
[2]; [17]
  MIC90: 14.7 µM (≈ 4.19 µg/mL)
[2]; [10]
  MIC50: 1.1 µM (≈ 0.314 µg/mL)
[2]; [11]
  MIC90: 5.75 µM (≈ 1.64 µg/mL)
[2]; [18]
  MIC50: 1 µM (≈ 0.285 µg/mL)
[2]; [12]
  MIC90: 6.8 µM (≈ 1.94 µg/mL)
[2]; [19]
  MIC50: 1.5 µM (≈ 0.428 µg/mL)
[2]; [20]
  MIC90: 10.0 µM (≈ 2.85 µg/mL)
[2]; [21]
  MIC50: 1.2 µM (≈ 0.342 µg/mL)
[2]; [13]
  MIC90: 4.7 µM (≈ 1.34 µg/mL)

## C[C@@H](O)[C@H]1C(=O)N2C(C(=O)O)=C(S[C@@H]3CN[C@H](C(=O)N(C)C)C3)[C@H](C)[C@H]12 [Meropenem]
M. tuberculosis H37Rv [1]; [6]
  MIC: 6.9 µM
M. tuberculosis H37Rv [1]; [7]
  MIC: 31.7 µM
[2]; [8]
  MIC50: 6.78 µM (≈ 2.6 µg/mL)
[2]; [9]
  MIC90: 17 µM (≈ 6.52 µg/mL)
[2]; [16]
  MIC50: 8.97 µM (≈ 3.44 µg/mL)
[2]; [17]
  MIC90: 19.6 µM (≈ 7.52 µg/mL)
[2]; [10]
  MIC50: 1.94 µM (≈ 0.744 µg/mL)
[2]; [11]
  MIC90: 5.55 µM (≈ 2.13 µg/mL)
[2]; [18]
  MIC50: 2.03 µM (≈ 0.778 µg/mL)
[2]; [12]
  MIC90: 5.39 µM (≈ 2.07 µg/mL)
[2]; [19]
  MIC50: 4.6 µM (≈ 1.76 µg/mL)
[2]; [20]
  MIC90: 14.41 µM (≈ 5.53 µg/mL)
[2]; [21]
  MIC50: 1.85 µM (≈ 0.709 µg/mL)
[2]; [13]
  MIC90: 5.71 µM (≈ 2.19 µg/mL)

## CO[C@H]1/C=C/O[C@@]2(C)Oc3c(C)c(O)c4c(O)c(c(/C=N/N5CCN(C)CC5)c(O)c4c3C2=O)NC(=O)/C(C)=C\C=C\[C@H](C)[C@H](O)[C@@H](C)[C@@H](O)[C@@H](C)[C@H](OC(C)=O)[C@@H]1C [RIF, Rifampicin]
Mtb H37Rv strain
  MICsyn_B: 0.005 µM
  MIC: 0.04 µM

## CO[C@H]1CCC[C@H]2C1=C(C(=O)O)N1C(=O)[C@H]([C@@H](C)O)[C@@H]21 [Sanfetrinem (sodium salt), sodium (1S,5S,8aS,8bR)-1-((R)-1-hydroxyethyl)-5-methoxy-2-oxo-1,2,5,6,7,8,8a,8b-octahydroazeto[2,1-a]isoindole-4-carboxylate]
M. tuberculosis H37Rv [4]; [22]
  IC90: 1.22 µg/mL
M. tuberculosis H37Rv [4]; Mycobacterium tuberculosis, H37RV, read-out: IC90 of sanfetrinem in combination with amoxicillin (at 10 μg/ml)
  IC90: 0.33 µg/mL
M. tuberculosis H37Rv [4]; Mycobacterium tuberculosis, H37RV, read-out: IC90 of sanfetrinem in combination with clavulanate
  IC90: 0.55 µg/mL
M. tuberculosis H37Rv [1]; Mycobacterium tuberculosis, H37RV, read-out: MIC μM (average w/o clav), extracellular, without clavulanate, average
  MIC: 5 µM
M. tuberculosis H37Rv [1]; Mycobacterium tuberculosis, H37RV, read-out: MIC μM (average with clav), extracellular, with 4 μg/ml potassium clavulanate, average
  MIC: 2.9 µM
[2]; [8]
  MIC50: 1.65 µM
[2]; [9]
  MIC90: 5.57 µM
[2]; [16]
  MIC50: 1.32 µM
[2]; [10]
  MIC50: 1.64 µM
[2]; [11]
  MIC90: 7.25 µM
[2]; [12]
  MIC90: 6.13 µM
[2]; [19]
  MIC50: 1.64 µM and 2 µM
[2]; [13]
  MIC90: 6.8 µM and 8.82 µM
Mtb H37Rv strain; MIC/MICsyn of SFT with AMX
  Fold_A: 8
Mtb H37Rv strain; MIC/MICsyn of SFT with DLD
  Fold_A: 4
Mtb H37Rv strain; MIC/MICsyn of SFT with EMB
  Fold_A: 4
Mtb H37Rv strain; MIC/MICsyn of SFT with RIF
  Fold_A: 8
Mtb H37Rv strain; SFT in the presence of AMX
  FIC_A: 0.125
  MICsyn_A: 0.5 µM
Mtb H37Rv strain; SFT in the presence of DLD
  FIC_A: 0.25
  MICsyn_A: 0.4 µM
Mtb H37Rv strain; SFT in the presence of EMB
  FIC_A: 0.25
  MICsyn_A: 0.4 µM
Mtb H37Rv strain; SFT in the presence of RIF
  FIC_A: 0.125
  MICsyn_A: 0.4 µM
Mtb H37Rv strain; combination SFT with AMX
  FICI: 0.1875
Mtb H37Rv strain; combination SFT with DLD
  FICI: 0.5
Mtb H37Rv strain; combination SFT with EMB
  FICI: 0.5
Mtb H37Rv strain; combination SFT with RIF
  FICI: 0.25
[5]; MGIT 960, 23 strains, 0.5 to 20 μM
  Sensitivity of all strains within the concentration range tested: sensitive
[5]; read-out: MIC, another four strains higher
  MIC: > 5 µM
[5]; read-out: MIC, four strains lower
  MIC: < 5 µM
[5]; read-out: MIC, most common value
  MIC: 5 µM
M. tuberculosis H37Rv [3]
  Lung CFU: 7.3 log CFU
  Effect on bacterial growth in lung: preventing bacterial growth

## C[C@@H](O)[C@H]1C(=O)N2C(C(=O)O)=C(SC3CN(C4=NCCS4)C3)[C@H](C)[C@H]12 [Tebipenem]
M. tuberculosis H37Rv [1]; [6]
  MIC: 1.25 µM
M. tuberculosis H37Rv [1]; [14]
  MIC: 1.25 µM
M. tuberculosis H37Rv [1]; [7]
  MIC: 7.5 µM
M. tuberculosis H37Rv [1]; [15]
  MIC: 7.5 µM
[2]; [8]
  MIC50: 4.51 µM (≈ 1.73 µg/mL)
[2]; [9]
  MIC90: 46.5 µM (≈ 17.8 µg/mL)
[2]; [10]
  MIC50: 0.49 µM (≈ 0.188 µg/mL)
[2]; [11]
  MIC90: 3.61 µM (≈ 1.38 µg/mL)

## CC1(C)S[C@@H]2[C@H](NC(=O)[C@H](N)c3ccc(O)cc3)C(=O)N2[C@H]1C(=O)O [amoxicillin]
M. tuberculosis H37Rv [4]; [22]
  IC80: 42 µg/mL
M. tuberculosis H37Rv [4]; amoxicillin in monotherapy
  Reaching 90% Inhibition: does not reach a 90% Inhibition
M. tuberculosis H37Rv [4]; in combination with clavulanate
  Reaching 90% growth inhibition: nor in combination with clavulanate reach the 90% growth inhibition
Mtb H37Rv strain
  MICsyn_B: 8 µM
  MIC: 128 µM

## O=C(O)[C@H]1/C(=C/CO)O[C@@H]2CC(=O)N21 [clavulanate, Potassium clavulanate]
M. tuberculosis H37Rv [4]; alone
  Activity alone: not active
